Holding throughout (assay): microbe, parasite or virus in culture
Holding throughout (assay type): cell-based, Hepatitis C virus (HCV)

One assay concerns HCV replicon 1B. Conditions: replicon 1B, Replicon Assay B.
In a further assay the test system is HCV replicon 1AQ30D. Conditions: Replicon Assay B.
A further assay concerns HCV replicon 2B. The following applies: read-out: 2B IC50; replicon 2B; Replicon Assay A. The essentials:
(§1)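 HCV RNA levels were calculated from Ct values (minus intercept, divided by slope) of a Neo primer/probe standard curve, with cyclophilin quantified the same way. Cells were seeded at 2000/well and incubated with compound for 3 days in 5% serum and 0.5% DMSO.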

A further assay relates to HCV replicon 1AY93H. Conditions: read-out: 1A Y93H IC50; replicon 1AY93H; Replicon Assay A. The essentials:
as §1

For another assay, the system named is HCV replicon 1A. The following applies: replicon 1A, Replicon Assay A. The essentials: as §1
[1] abbreviates: read-out: 1A Q30D IC50, replicon 1AQ30D.
[2] abbreviates: Hepatitis C virus, read-out: 1A Q30D IC50 (nM), replicon 1AQ30D.

IC50 data for 19 compounds are collected here from patent US20160257697A1, “THIOPHENE-SUBSTITUTED TETRACYCLIC COMPOUNDS AND METHODS OFUSE THEREOF FOR THE TREATMENT OF VIRAL DISEASES” (priority 2013, published 2016).

Structures are written as SMILES. Read-outs that look alike come from different tables or passages of the source.

In the case of `COC(=O)NC(C(=O)N1CCC[C@H]1c1ncc(-c2cc(F)c3c(c2)OC(c2ccc(C4CC4)s2)n2c-3cc3cc(-c4cnc([C@@H]5CCCN5C(=O)[C@@H](NC(=O)OC)C(C)C)[nH]4)ccc32)[nH]1)C1CCOC(C)(C)C1` (single isomer, unassigned) [Compound 214], the 50% inhibitory concentration (IC50) in the assay with HCV replicon 1B (Hepatitis C virus) came out at 2.2 pM; in the assay with HCV replicon 1AQ30D (setting [1]), 0.032 nM; in the assay with HCV replicon 2B, 5 pM; in the assay with HCV replicon 1AY93H, 9 pM; in the assay with HCV replicon 1A, 3 pM.

As to `COC(=O)NC(C(=O)N1CCC[C@H]1c1ncc(-c2cc(F)c3c(c2)OC(c2ccc(C4CC4)s2)n2c-3cc3cc(-c4cnc([C@@H]5CCCN5C(=O)[C@@H](NC(=O)OC)C(C)C)[nH]4)ccc32)[nH]1)C1CCOC(C)(C)C1` (single isomer, unassigned) [Compound 215], the IC50 turned out to be 3.2 pM in the assay with HCV replicon 1B; 0.017 nM with HCV replicon 1AQ30D (setting [1]); 10 pM in the assay on HCV replicon 2B; 5 pM with HCV replicon 1AY93H; 3.1 pM in the assay on HCV replicon 1A.

With `COC(=O)NC(C(=O)N1CCC[C@H]1c1ncc(-c2cc(F)c3c(c2)OC(c2ccc(C4CC4)s2)n2c-3cc3cc(-c4cnc([C@@H]5CCCN5C(=O)[C@@H](NC(=O)OC)C(C)C)[nH]4)ccc32)[nH]1)C1CCOC(C)(C)C1` (single isomer, unassigned) [Compound 216], the IC50 with HCV replicon 1B turned out to be 3.3 pM; with HCV replicon 1AQ30D (setting [1]), 1.03 nM; with HCV replicon 2B, 310 pM; in the assay with HCV replicon 1AY93H it was 180 pM; in the assay with HCV replicon 1A, 1.7 pM.

As to `COC(=O)NC(C(=O)N1CCC[C@H]1c1ncc(-c2ccc3c(c2)cc2n3C(c3ccc(C4CC4)s3)Oc3cc(-c4cnc([C@@H]5CCCN5C(=O)[C@@H](NC(=O)OC)C(C)C)[nH]4)cc(F)c3-2)[nH]1)C1CN(C(=O)OC)C1` (single isomer, unassigned) [Compound 226], the IC50 was 3.6 pM with HCV replicon 1B (Hepatitis C virus); 0.13 nM in the assay on HCV replicon 1AQ30D (setting [2]); 25 pM in the assay with HCV replicon 2B; 9 pM with HCV replicon 1AY93H; 2.6 pM with HCV replicon 1A (Hepatitis C virus).

`COC(=O)NC(C(=O)N1CCC[C@H]1c1ncc(-c2cc(F)c3c(c2)OC(c2ccc(C4CCC4)s2)n2c-3cc3cc(-c4cnc([C@@H]5CCCN5C(=O)[C@@H](NC(=O)OC)C5CCOCC5)[nH]4)ccc32)[nH]1)C(C)(C)F` (single isomer, unassigned) [Compound 248]: the 50% inhibitory concentration (IC50) was found to be 3.2 pM in the assay with HCV replicon 1B (Hepatitis C virus); 0.43 nM in the assay with HCV replicon 1AQ30D (setting [2]); 76 pM in the assay on HCV replicon 2B; 110 pM in the assay on HCV replicon 1AY93H; 2.5 pM in the assay with HCV replicon 1A.

As to `COC(=O)NC(C(=O)N1CCC[C@H]1c1ncc(-c2cc(F)c3c(c2)OC(c2ccc(C4CCC4)s2)n2c-3cc3cc(-c4cnc([C@@H]5CCCN5C(=O)[C@@H](NC(=O)OC)C5CCOCC5)[nH]4)ccc32)[nH]1)C(C)(C)F` (single isomer, unassigned) [Compound 251], the IC50 in the assay with HCV replicon 1B stood at 2.5 pM; in the assay on HCV replicon 1AQ30D (setting [1]) it was 0.4 nM; in the assay on HCV replicon 2B it was 100 pM; in the assay with HCV replicon 1AY93H, 60 pM; in the assay with HCV replicon 1A it was 1.2 pM.

On to `CCc1ccc(C2Oc3cc(-c4cnc([C@@H]5CCCN5C(=O)[C@@H](NC(=O)OC)C(C)C)[nH]4)cc(F)c3-c3cc4cc(-c5cnc([C@@H]6C[C@@H](F)CN6C(=O)C(NC(=O)OC)C6CCOC(C)(C)C6)[nH]5)ccc4n32)s1` (single isomer, unassigned) [Compound 258], for which the half-inhibitory concentration (IC50) worked out at 2.7 pM in the assay with HCV replicon 1B (Hepatitis C virus); 1.2 nM in the assay on HCV replicon 1AQ30D (setting [1]); 430 pM in the assay on HCV replicon 2B; 4 pM in the assay with HCV replicon 1AY93H; 1.8 pM in the assay with HCV replicon 1A.

In the case of `CCc1ccc(C2Oc3cc(-c4cnc([C@@H]5CCCN5C(=O)[C@@H](NC(=O)OC)C(C)C)[nH]4)cc(F)c3-c3cc4cc(-c5cnc([C@@H]6C[C@@H](F)CN6C(=O)C(NC(=O)OC)C6CCOC(C)(C)C6)[nH]5)ccc4n32)s1` (single isomer, unassigned) [Compound 259], the IC50 in the assay on HCV replicon 1B stood at 3.3 pM; in the assay with HCV replicon 1AQ30D (setting [1]), 0.31 nM; in the assay with HCV replicon 2B, 320 pM; in the assay on HCV replicon 1AY93H it was 2 pM; with HCV replicon 1A it was 3.1 pM.

With `COC(=O)N[C@H](C(=O)N1CCC[C@H]1c1ncc(-c2ccc3c(c2)OC(c2cc4ccccc4s2)n2c-3cc3cc(-c4cnc([C@@H]5CCCN5C(=O)[C@@H](NC(=O)OC)C5CCOCC5)[nH]4)ccc32)[nH]1)C1CCOCC1` (single isomer, unassigned) [Compound 262], the IC50 with HCV replicon 1B (Hepatitis C virus) stood at 4 pM; in the assay on HCV replicon 1AQ30D (setting [1]), 0.12 nM; with HCV replicon 2B it was 19 pM; in the assay on HCV replicon 1AY93H, 52 pM; in the assay on HCV replicon 1A (Hepatitis C virus), 4.2 pM.

Turning to `COC(=O)N[C@H](C(=O)N1CCC[C@H]1c1ncc(-c2ccc3c(c2)OC(c2cc4ccccc4s2)n2c-3cc3cc(-c4cnc([C@@H]5CCCN5C(=O)[C@@H](NC(=O)OC)C5CCOCC5)[nH]4)ccc32)[nH]1)C1CCOCC1` (single isomer, unassigned) [Compound 263], the IC50 with HCV replicon 1B is 3.4 pM; in the assay with HCV replicon 1AQ30D (setting [1]), 0.012 nM; in the assay on HCV replicon 2B, 5 pM; in the assay with HCV replicon 1AY93H it was 3 pM; with HCV replicon 1A, 3.6 pM.

In the case of `COC(=O)NC(C(=O)N1CCC[C@H]1c1ncc(-c2ccc3c(c2)cc2n3C(c3ccc(C(F)F)s3)Oc3cc(-c4cnc([C@@H]5CCCN5C(=O)[C@@H](NC(=O)OC)C(C)C)[nH]4)cc(F)c3-2)[nH]1)C1C[C@@H](C)O[C@@H](C)C1` (single isomer, unassigned) [Compound 266], the concentration for half-maximal inhibition (IC50) was determined as 1.5 pM in the assay with HCV replicon 1B (Hepatitis C virus); 0.051 nM in the assay on HCV replicon 1AQ30D (setting [2]); 8 pM in the assay on HCV replicon 2B; 3 pM in the assay on HCV replicon 1AY93H; 1.1 pM in the assay with HCV replicon 1A (Hepatitis C virus).

`COC(=O)NC(C(=O)N1CCC[C@H]1c1ncc(-c2ccc3c(c2)cc2n3C(c3ccc(C4CC4)s3)Oc3cc(-c4cnc([C@@H]5CCCN5C(=O)[C@@H](NC(=O)OC)C(C)C)[nH]4)cc(F)c3-2)[nH]1)C1CN(C(=O)C2CC2)C1` (single isomer, unassigned) [Compound 267]: the IC50 with HCV replicon 1B (Hepatitis C virus) was found to be 3.9 pM; with HCV replicon 1AQ30D (setting [2]), 0.08 nM; in the assay on HCV replicon 2B it was 12 pM; in the assay with HCV replicon 1AY93H, 13 pM; in the assay with HCV replicon 1A, 3.5 pM.

As to `COC(=O)NC(C(=O)N1[C@@H]2C[C@@H]2C[C@H]1c1ncc(-c2ccc3c(c2)cc2n3C(c3ccc(C4CC4)s3)Oc3cc(-c4cnc([C@@H]5CCCN5C(=O)[C@@H](NC(=O)OC)C(C)C)[nH]4)cc(F)c3-2)[nH]1)C1C[C@@H](C)O[C@@H](C)C1` (single isomer, unassigned) [Compound 271], the 50% inhibitory concentration (IC50) with HCV replicon 1B (Hepatitis C virus) was determined as 2.2 pM; with HCV replicon 1AQ30D (setting [1]), 0.036 nM; in the assay on HCV replicon 2B, 13 pM; with HCV replicon 1AY93H, 4 pM; with HCV replicon 1A it was 3.4 pM.

With `COC(=O)NC(C(=O)N1[C@@H]2C[C@@H]2C[C@H]1c1ncc(-c2ccc3c(c2)cc2n3C(c3ccc(C4CC4)s3)Oc3cc(-c4cnc([C@@H]5CCCN5C(=O)[C@@H](NC(=O)OC)C(C)C)[nH]4)cc(F)c3-2)[nH]1)C1C[C@@H](C)O[C@@H](C)C1` (single isomer, unassigned) [Compound 272], the half-maximal inhibitory concentration (IC50) with HCV replicon 1B turned out to be 3.3 pM; in the assay with HCV replicon 1AQ30D (setting [1]), 2.39 nM; in the assay on HCV replicon 2B, 2750 pM; in the assay with HCV replicon 1AY93H, 1000 pM; in the assay on HCV replicon 1A, 2.7 pM.

For `COC(=O)NC(C(=O)N1[C@@H]2C[C@@H]2C[C@H]1c1ncc(-c2ccc3c(c2)cc2n3C(c3ccc(C4CC4)s3)Oc3cc(-c4cnc([C@@H]5CCCN5C(=O)[C@@H](NC(=O)OC)C(C)C)[nH]4)cc(F)c3-2)[nH]1)C1C[C@@H](C)O[C@@H](C)C1` (single isomer, unassigned) [Compound 273], the IC50 in the assay on HCV replicon 1B is 2 pM; in the assay with HCV replicon 1AQ30D (setting [1]) it was 2.06 nM; in the assay on HCV replicon 2B, 740 pM; in the assay on HCV replicon 1AY93H, 180 pM; in the assay on HCV replicon 1A, 1.5 pM.

Take `COC(=O)NC(C(=O)N1[C@@H]2C[C@@H]2C[C@H]1c1ncc(-c2ccc3c(c2)cc2n3C(c3ccc(C4CC4)s3)Oc3cc(-c4cnc([C@@H]5CCCN5C(=O)[C@@H](NC(=O)OC)C(C)C)[nH]4)cc(F)c3-2)[nH]1)C1CCOC(C)(C)C1` (single isomer, unassigned) [Compound 276]: the 50% inhibitory concentration (IC50) with HCV replicon 1B (Hepatitis C virus) amounted to 2.4 pM; with HCV replicon 1AQ30D (setting [2]), 0.018 nM; in the assay on HCV replicon 2B it was 5 pM; in the assay with HCV replicon 1AY93H, 1 pM; with HCV replicon 1A (Hepatitis C virus) it was 1.5 pM.

As to `COC(=O)N[C@H](C(=O)N1CCC[C@H]1c1ncc(-c2cc(F)c3c(c2)OC(c2ccc(C4CC4)s2)n2c-3cc3cc(-c4cnc([C@@H]5CCCN5C(=O)[C@@H](NC(=O)OC)C5CCOCC5)[nH]4)ccc32)[nH]1)C1CCOCC1` (single isomer, unassigned) [Compound 279], the IC50 in the assay with HCV replicon 1B (Hepatitis C virus) is 2.9 pM; with HCV replicon 1AQ30D (setting [1]), 0.92 nM; in the assay on HCV replicon 2B, 17 pM; in the assay with HCV replicon 1AY93H, 210 pM; in the assay with HCV replicon 1A (Hepatitis C virus) it was 2.3 pM.

With `COC(=O)N[C@H](C(=O)N1CCC[C@H]1c1ncc(-c2cc(F)c3c(c2)OC(c2ccc(C4CC4)s2)n2c-3cc3cc(-c4cnc([C@@H]5CCCN5C(=O)[C@@H](NC(=O)OC)C5CCOCC5)[nH]4)ccc32)[nH]1)C1CCOCC1` (single isomer, unassigned) [Compound 280], the 50% inhibitory concentration (IC50) in the assay with HCV replicon 1B was 2.6 pM; in the assay on HCV replicon 1AQ30D (setting [1]) it was 0.005 nM; in the assay on HCV replicon 2B, 3 pM; with HCV replicon 1AY93H, 3 pM; in the assay with HCV replicon 1A it was 2.1 pM.

On to `CCc1ccc(C2Oc3cc(-c4cnc([C@@H]5CCCN5C(=O)C(NC(=O)OC)C5CCOC(C)(C)C5)[nH]4)cc(F)c3-c3cc4cc(-c5cnc([C@@H]6CCCN6C(=O)C(NC(=O)OC)C6CCOC(C)(C)C6)[nH]5)ccc4n32)s1` (single isomer, unassigned) [Compound 295], for which the IC50 in the assay with HCV replicon 1B was found to be 2.8 pM; in the assay with HCV replicon 1AQ30D (setting [1]), 0.017 nM; with HCV replicon 2B it was 4 pM; with HCV replicon 1AY93H it was 5 pM; in the assay with HCV replicon 1A, 3.2 pM.
